From ChEMBL document CHEMBL6096732 (J Med Chem, 2025)
The source made the active and inactive calls. The calls are words filed in the database; no cut-off is given here.

Assays:
B16-F10 [1] = assay: Cell cycle arrest in mouse B16-F10 cells assessed as accumulation of cells in G1 phase incubated for 48 hrs by RNase A/PI staining based flow cytometric analysis; assay type: functional; conditions: dose 5-20 µM
B16-F10 [2] = assay: Cell cycle arrest in mouse B16-F10 cells assessed as decrease in G2/M phase population at 5 to 20 uM incubated for 48 hrs by RNase A/PI staining based flow cytometric analysis; assay type: functional; conditions: dose 5-20 µM
[3] = Cmax in male Sprague-Dawley rat at 2 mg/kg, iv measured after 12 hrs by LC-MS/MS analysis; assay type: ADME, organism-based; conditions: in vivo
[4] = molecular target: Programmed cell death 1 ligand 1 (Mus musculus) (UniProt Q9EP73); assay: Induction of PD-L1 degradation in mouse B16-F10 cells assessed as decrease in PD-L1 protein level by measuring maximal efficacy at 10 uM incubated for 24 hrs by Western blot analysis relative to control; assay type: cell-based
Chain of Programmed cell death 1 ligand 1 (Mus musculus) (Q9EP73 whole entry): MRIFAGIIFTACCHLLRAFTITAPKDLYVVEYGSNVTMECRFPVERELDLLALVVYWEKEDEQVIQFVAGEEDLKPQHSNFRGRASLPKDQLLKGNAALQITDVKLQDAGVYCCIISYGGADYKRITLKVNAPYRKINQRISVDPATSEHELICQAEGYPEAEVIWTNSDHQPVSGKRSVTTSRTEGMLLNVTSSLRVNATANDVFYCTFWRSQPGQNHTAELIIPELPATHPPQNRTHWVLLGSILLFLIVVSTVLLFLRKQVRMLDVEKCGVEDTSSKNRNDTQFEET

B16-F10 [5] = assay: Downregulation of PARP1 expression in mouse B16-F10 cells at 2 uM incubated for 24 hrs by Western blot analysis; assay type: functional, cell-based
[6] = Half-life in male Sprague-Dawley rat at 20 mg/kg, po measured after 12 hrs by LC-MS/MS analysis; assay type: ADME, organism-based; conditions: in vivo
[7] = AUMC (0 to t) in male Sprague-Dawley rat at 20 mg/kg, po measured after 12 hrs by LC-MS/MS analysis; assay type: ADME, organism-based; conditions: in vivo
[8] = Retention time of compound by HPLC analysis; assay type: physicochemical
[9] = molecular target: T1, Histone deacetylase 3 (Mus musculus) (UniProt O88895); assay: In vivo inhibition of HDAC3 in male C57BL/6 mouse model implanted with mouse B16-F10 cells assessed as increase in acetylated histone H3 level in tumor at 50 mg/kg, po administered once daily via gavage for 14 days by DAPI staining based immunofluorescence analysis; assay type: functional, organism-based; conditions: time 14.0 day
T1 sequence (whole entry): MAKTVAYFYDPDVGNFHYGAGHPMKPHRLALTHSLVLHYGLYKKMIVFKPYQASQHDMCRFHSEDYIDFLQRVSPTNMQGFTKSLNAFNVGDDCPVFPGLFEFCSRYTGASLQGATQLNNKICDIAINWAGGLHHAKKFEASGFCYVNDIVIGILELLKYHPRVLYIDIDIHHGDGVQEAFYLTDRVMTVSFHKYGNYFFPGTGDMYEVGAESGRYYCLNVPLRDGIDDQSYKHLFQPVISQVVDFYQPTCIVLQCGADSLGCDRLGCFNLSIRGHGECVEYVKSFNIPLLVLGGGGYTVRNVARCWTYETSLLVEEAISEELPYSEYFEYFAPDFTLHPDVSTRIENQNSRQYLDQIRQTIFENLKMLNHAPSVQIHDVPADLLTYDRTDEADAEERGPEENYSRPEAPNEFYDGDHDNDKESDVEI

[10] = Toxicity in male C57BL/6 mouse implanted with mouse B16-F10 cells assessed as histopathological changes in heart at 50 mg/kg, po administered once daily for 14 days by HandE staining based microscopic analysis; assay type: organism-based; conditions: in vivo, 336 h, time 14 day
Mus musculus [11] = assay: In vivo induction of PD-L1 degradation in male C57BL/6 mouse model implanted with mouse B16-F10 cells assessed as decrease in PD-L1 protein expression in tumor at 50 mg/kg, po administered once daily via gavage for 14 days by Western blot analysis; assay type: functional, organism-based; conditions: time 14.0 day
B16-F10 [12] = assay: Effect on acetylated H3K56 expression level in mouse B16-F10 cells at 5 to 20 uM incubated for 24 hrs by Western blot analysis; assay type: functional, cell-based; conditions: dose 5-20 µM
[13] = molecular target: T1, Histone deacetylase 3 (Mus musculus); assay: Inhibition of HDAC3 in mouse B16-F10 cells assessed as increase in acetylated histone H3 level at 5 uM incubated for 24 hrs by DAPI staining based immunofluorescence analysis; assay type: cell-based
[14] = molecular target: T1, Histone deacetylase 3 (Mus musculus); assay: Inhibition of HDAC3 in mouse 4T1 cells assessed as increase in histone H3 acetylation level at 5 to 20 uM incubated for 24 hrs by Western blot analysis; assay type: cell-based; conditions: dose 5-20 µM
[15] = VRT (0 to t) in male Sprague-Dawley rat at 20 mg/kg, po measured after 12 hrs by LC-MS/MS analysis; assay type: ADME, organism-based; conditions: in vivo
Mus musculus [16] = assay: Immunomodulatory activity in male C57BL/6 mouse model implanted with mouse B16-F10 cells assessed as increase in CD3+ CD4+ T cells in tumor at 50 mg/kg, po co-administered with NP-19 as once daily dosage via gavage for 14 days by flow cytometric analysis (reference value: 3.1 %); assay type: functional; conditions: time 14 day
[17] = MRT (0 to infinity) in male Sprague-Dawley rat at 2 mg/kg, iv measured after 12 hrs by LC-MS/MS analysis; assay type: ADME, organism-based; conditions: in vivo
[18] = AUC (0 to 12 hrs) in male Sprague-Dawley rat at 20 mg/kg, po measured after 12 hrs by LC-MS/MS analysis; assay type: ADME, organism-based; conditions: in vivo
B16-F10 [19] = assay: Antitumor activity against mouse B16-F10 cells implanted in male C57BL/6 mouse model assessed as tumor growth inhibition at 50 mg/kg, po administered once daily via gavage for 14 days relative to control; assay type: functional; conditions: B16-F10, 336 h, time 14 day, read-out: TGI
[20] = Clearance in male Sprague-Dawley rat at 20 mg/kg, po measured after 12 hrs by LC-MS/MS analysis; assay type: ADME, organism-based; conditions: in vivo
[21] = AUC (0 to infinity) in male Sprague-Dawley rat at 20 mg/kg, po measured after 12 hrs by LC-MS/MS analysis; assay type: ADME, organism-based; conditions: in vivo
[22] = Toxicity in male C57BL/6 mouse implanted with mouse B16-F10 cells assessed as body weight loss at 50 mg/kg, po administered once daily for 14 days; assay type: organism-based; conditions: in vivo, 336 h, time 14 day
Histone deacetylase 1 = Histone deacetylase 1 (Homo sapiens, UniProt Q13547); assay: Inhibition of recombinant HDAC1 (unknown origin) using Boc-Lys(acetyl)-AMC as substrate preincubated for 1 hr followed by substrate addition and measured after 2 hrs by fluorescence based micro plate reader analysis
Chain of Histone deacetylase 1 (Q13547 whole entry): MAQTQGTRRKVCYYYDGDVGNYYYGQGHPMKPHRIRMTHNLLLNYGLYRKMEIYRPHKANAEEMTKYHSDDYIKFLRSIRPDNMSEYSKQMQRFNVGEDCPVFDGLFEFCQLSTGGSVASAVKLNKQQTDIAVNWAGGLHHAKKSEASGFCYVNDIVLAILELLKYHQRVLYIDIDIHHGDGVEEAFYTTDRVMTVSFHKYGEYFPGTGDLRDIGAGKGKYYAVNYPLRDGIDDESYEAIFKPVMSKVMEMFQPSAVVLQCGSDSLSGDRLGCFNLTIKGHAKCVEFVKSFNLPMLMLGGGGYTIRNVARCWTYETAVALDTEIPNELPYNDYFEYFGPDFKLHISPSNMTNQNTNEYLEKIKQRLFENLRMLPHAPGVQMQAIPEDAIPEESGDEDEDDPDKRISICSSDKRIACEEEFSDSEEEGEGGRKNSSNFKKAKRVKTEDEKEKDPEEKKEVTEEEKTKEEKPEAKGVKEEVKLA

B16-F10 [23] = assay: Induction of apoptosis in mouse B16-F10 cells assessed as increase in apoptotic cells at 5 uM incubated for 48 hrs by Annexin V-FITC/PI staining based flow cytometric analysis relative to control; assay type: functional
[24] = molecular target: Programmed cell death 1 ligand 1 (Mus musculus) (UniProt Q9EP73); assay: Induction of PD-L1 degradation in mouse B16-F10 cells assessed as decrease in PD-L1 protein level at 5 uM preincubated with bafilomycin A1 for 4 hrs followed by compound addition and measured after 24 hrs by Western blot analysis; assay type: cell-based
4T1 [25] = assay: Antitumor activity against mouse 4T1 cells implanted in female BALB/c mouse model assessed as induction of DNA damage by measuring increase in gamma-H2AX expression in tumor co-administrated orally with olaparib as once daily dose via gavage for 14 days by Western blot analysis; assay type: functional, cell-based; conditions: route po, time 14.0 day
Histone deacetylase 3 = Histone deacetylase 3 (Homo sapiens, UniProt O15379); assay: Inhibition of recombinant HDAC3 (unknown origin) using Boc-Lys(acetyl)-AMC as substrate preincubated for 1 hr followed by substrate addition and measured after 2 hrs by fluorescence based micro plate reader analysis
Chain of Histone deacetylase 3 (O15379 whole entry): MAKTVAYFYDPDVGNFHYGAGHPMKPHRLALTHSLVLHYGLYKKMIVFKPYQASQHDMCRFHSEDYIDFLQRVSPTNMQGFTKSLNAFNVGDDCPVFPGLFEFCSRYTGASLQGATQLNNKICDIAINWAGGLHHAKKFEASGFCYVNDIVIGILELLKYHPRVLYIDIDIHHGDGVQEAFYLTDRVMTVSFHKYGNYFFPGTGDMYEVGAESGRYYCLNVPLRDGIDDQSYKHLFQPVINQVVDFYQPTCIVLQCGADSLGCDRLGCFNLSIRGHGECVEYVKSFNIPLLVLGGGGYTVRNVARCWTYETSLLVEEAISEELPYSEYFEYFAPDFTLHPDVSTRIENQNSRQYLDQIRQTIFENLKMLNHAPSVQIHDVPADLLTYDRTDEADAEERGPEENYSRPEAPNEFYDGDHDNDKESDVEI

B16-F10 [26] = assay: cells; assay type: functional, cell-based; conditions: Mus musculus, B16-F10, 72 h
Description: Antiproliferative activity against mouse B16-F10 cells assessed as inhibition of cell growth incubated for 72 hrs by MTT assay

4T1 [27] = assay: Antitumor activity against mouse 4T1 cells implanted in female BALB/c mouse model assessed as decrease in PAPR1 expression in tumor co-administrated orally with olaparib as once daily dose via gavage for 14 days by immunohistochemistry analysis; assay type: functional, cell-based; conditions: route po, time 14.0 day

In the case of CCCNNC(=O)c1ccc(Cn2c3ccccc3c3c(-c4ccccn4)nc4ccccc4c32)cc1, the Activity (B16-F10 [1]) is reported as “Dose-dependent-effect”, the Activity (B16-F10 [2]) is reported as “Active” and the Cmax [3] is reported as 1040 ng/mL. The Emax [4] was 85%, the Activity (B16-F10 [5]) was “Active” and the half-life [6] was 2.03 h. The AUMCt [7] was 34704.993 hr.hr.ug/L, the Retention_time [8] was 10.16 min and the inhibition [9] was “Active”. The Activity [10] was “Non-toxic”, the Activity (Mus musculus [11]) was “Active” and the Activity (B16-F10 [12]) was “inactive”. For the same compound, the inhibition [13] was “Active”, the inhibition [14] was “Active” and the “VRT(t)” value [15] was 7.932 hr2. For the same compound, the Activity (Mus musculus [16]) was 32%, the MRT inf [17] was 0.741 h and the AUC(0-t) at 12 h [18] was 7830 ng·h/mL. For the same compound, the inhibition in vivo at 50 mg/kg (B16-F10 [19]) was 67%, the CL/F [20] was 41.1 mL/min/kg and the AUC(0-inf) [21] was 8170 ng·h/mL. For the same compound, the Activity [22] was “Non-toxic”, the IC50 (Histone deacetylase 1) was 6.8 µM and the Activity (B16-F10 [23]) was 25%. For the same compound, the Activity [24] was “Not active; Compound Degrades Pd-L1 Through Lysosomal Pathway”, the Activity (4T1 [25]) was “Active” and the IC50 (Histone deacetylase 3) was 0.042 µM. For the same compound, the IC50 (B16-F10 [26]) was 5.56 µM and the Activity (4T1 [27]) was “Active”.
